Values quoted from earlier work, collected in patent US11858967B2, “Compositions and methods for enhanced production of enduracidin in a genetically engineered strain of streptomyces fungicidicus” (Oregon State University, priority 2016, dated 2024).
Like-named read-outs stand apart in the source and are kept apart here.

What was measured:
[1] = test system: Gram-positive organisms, including methicillin-resistant Staphylococcus aureus (MRSA) and vancomycin-resistant Enterococcus (VRE)
[2] = test system: S. aureus (100 strains, including 40% MRSA); settings: 100 strains of S. aureus
[3] = mice, rabbits, dogs and monkeys
[4] = test system: Clostridium spp.
[5] = monkey, in vivo
[6] = rat, in vivo
[7] = test system: MRSA; settings: humans, i.m. 100 mg every 12 hours
[8] = in vivo

Enduracidin
type of antibacterial effect [1]: bactericidal
Minimum inhibitory concentrations (MICs) ([1]; as low as): ≥ 0.05 mg/L
concentration at which no strain was able to survive exposure [2]: 1 µg/mL
acute LD50 ([3]; intraperitoneal): 750 to 910 mg/kg
acute LD50 ([3]; intravenous): 30 to 125 mg/kg
acute LD50 ([3]; subcutaneous, intramuscular (i.m.) or oral): 5000 to 10000 mg/kg
activity towards Clostridium spp. [4]: excellent activity
findings after long-term dosing [5]: localized inflammation at the injection site
findings after long-term dosing [6]: localized inflammation at the injection site
efficacy in chronic bone infections [7]: not chronic bone infections
efficacy in urinary tract and skin infections caused by MRSA [7]: highly effective
oral bioavailability [8]: lack of oral bioavailability
